Test results reported in patent publication US11446314B2, “Immunoablative therapies” (AVM Biotechnology LLC, priority 2018, dated 2022).
“Also recorded” adds a separate entry of the source.

Tests used:
[1] = tested on: RBC; conditions: doses of about 24 mg/50 kg; cited from earlier work
[2] = tested on: germinal centers; test: FITC-PNA staining of germinal centers in mouse spleen sections; format: in vivo; conditions: for HED dose from which germinal centers are reduced: acute dose, about; for Germinal Center staining intensity in spleen: 48 hours before spleen harvest
Description: FIG. 2. […] A graph of column plots of average Germinal Center staining intensity measured using immunofluorescent staining of fresh thick spleen sections stained with FITC-PNA is shown. Immunofluorescent intensity was calculated using thresholding and MetaMorph Image Analysis. Columns are average plus SEM.
The spleens were removed, weighed wet, and then fixed in 10% formalin. Subsequently the spleens were sectioned via proprietary methods and then incubated with FITC-PNA at 4 degC for 24 hours, washed, placed on slides and immunofluorescent images were captured. Metamorph software was used to quantify the immunofluorescent signal.

[3] = tested on: bone marrow mesenchymal stem cells; test: Horse sternal bone marrow MSC number and trilineage differentiation; format: in vivo; conditions: horses, 6 mg/kg HED, one hour IV infusion, 48 hours
[4] = tested on: B lymphocytes; test: Treatment of patients with autoimmune diseases (Examples 5 and 9); format: in vivo, human; conditions: patient with an autoimmune disease, acute high dose
Description: Acute high dose prednisone doses range from about 19 mg/kg to about 150 mg/kg, with doses between about 56 mg/kg and about 112 mg/kg being preferred, with a repeat (second) administration of this dose 24 hours later and an optional repeat (third) administration of this dose 48-72 hours after the initial dose.

[5] = tested on: peripheral blood T and B lymphocytes; conditions: single oral 0.24 mg/kg dose; cited from earlier work
[6] = tested on: pemphigus; conditions: 100 mgs by 2 hour IV infusion daily for 3 days, every 28 days until cure; cited from earlier work
[7] = Double-blind controlled horse trial; format: in vivo; conditions: horses, acute high dose, out to 70 days
[8] = tested on: hematopoietic stem cells; test: Live hematopoietic stem cells in naïve mice; conditions: 48 hours, low or high doses vs placebo
[9] = tested on: peripheral blood lymphocytes
[10] = tested on: germinal centers; conditions: rats IV or PO 20, 40, 80 mg/kg (HED 3.23, 6.45, 12.9 mg/kg), 48 hours
Description: Column plots of the area per spleen of BCL-6 staining of 5 micron fixed spleen sections as a measure of germinal center numbers given as average per section are shown.
Formalin-fixed spleens were cross-sectioned in 5 pieces, trimmed and embedded in paraffin, sectioned and stained with hematoxylin and eosin (H&E). Measurements of the periarteriolar lymphoid sheath (PAL) diameter and the width of the marginal zone (MZ) in areas of white pulp that had PAL with the greatest diameter were measured using an ocular micrometer. BCL-6 immunohistochemical staining in rat spleens was evaluated to determine GC area using automated image analysis methods.

[11] = tested on: spleen cellularity; conditions: cited from earlier work
[12] = tested on: lymphocytes; test: Lymphodepletion in C57B1 female mice; format: in vivo, mouse; conditions: oral, HED 12, 15, 18 mg/kg tested
[13] = tested on: lymphocytes; test: Flow cytometry of blood cells in human patients before and 48 hours after oral 3 mg/kg dexamethasone base
Text: FIG. 14. […] Each patient's pre-treatment values are connected to post-treatment values by a connecting line. CD4+ cells are also CD3+. CD8+ cells are also CD3+.
FIG. 15. […] Each patient's pre-treatment values are connected to post-treatment values by a connecting line. Tregs are identified by being CD3+CD4+CD25+FoxP3+. B lymphocytes are identified by being CD3−CD19+.
FIG. 16. […] Each patient's pre-treatment values are connected to post-treatment values by a connecting line. NK cells are identified by being CD3−CD16/56+. HSCs are identified by being CD34+CD38−.
(§1) Blood was drawn before drug treatment and 48 hours post-treatment for CBC analysis and flow cytometry to determine lymphocyte and other blood cell populations. Serum was analyzed for cytokine levels.

[14] = tested on: IL-2, IL-15, IL-6
Description: as §1

[15] = tested on: CD4+, CD8+, Tregs and B cells; test: Preliminary dose escalation studies in naïve mouse and rat models; format: in vivo
[16] = tested on: bone marrow mesenchymal stem cells; test: Human bone marrow MSC number by CFU-F; conditions: oral 3 mg/kg dexamethasone base, 48 hours, vs 31 historical controls
[17] = Clinical chemistries in mice; format: in vivo, mouse
[18] = tested on: marginal zone; conditions: rats IV or PO 20, 40, 80 mg/kg (HED 3.23, 6.45, 12.9 mg/kg), 48 hours
Description: Formalin-fixed spleens were cross-sectioned in 5 pieces, trimmed and embedded in paraffin, sectioned and stained with hematoxylin and eosin (H&E). Measurements of the periarteriolar lymphoid sheath (PAL) diameter and the width of the marginal zone (MZ) in areas of white pulp that had PAL with the greatest diameter were measured using an ocular micrometer.

[19] = pharmacodynamic (biologic); cited from earlier work
[20] = tested on: spleen weights or germinal centers; conditions: mice, po daily for 13 weeks; cited from earlier work
[21] = oral 3 mg/kg dexamethasone base, 48 hours

C[C@H]1C[C@H]2[C@@H]3CCC4=CC(=O)C=C[C@]4(C)[C@@]3(F)[C@@H](O)C[C@]2(C)[C@@]1(O)C(=O)CO [betamethasone]
effect on RBC [1]: reduces RBC

C[C@@H]1C[C@H]2[C@@H]3CCC4=CC(=O)C=C[C@]4(C)[C@@]3(F)[C@@H](O)C[C@]2(C)[C@@]1(O)C(=O)CO [dexamethasone]
HED dose from which germinal centers are reduced [2]: ≥ 6 mg/kg
HED dose from which germinal centers are reduced ([2]; listed as Dexamethasone): ≥ 3 mg/kg
Germinal Center staining intensity in spleen ([2]; mice, HED 6 mg/kg): Germinal center reduction is apparent
Germinal Center staining intensity in spleen ([2]; mice, HED 9 and 12 mg/kg): not significantly reduced until HED of 9 and 12 mg/kg doses; also recorded: significantly reduced
FITC-PNA immunofluorescence (germinal centers) in spleen ([2]; mice, IP HED 9.3 mg/kg dexamethasone base, 96 hours before spleen harvest): almost no immunofluorescent signal
sternal BM MSC stem cell number [3]: doubled
reduction of B lymphocyte numbers [4]: greater than 90%
reduction of memory B cell populations [4]: greater than 90%
suppression of peripheral blood T and B lymphocytes [5]: 80%
time at which recovery begins [5]: 12 h
time to normal levels [5]: ≤ 24 h
relapse rate [6]: 15%
adverse side effects [7]: no adverse side effects were observed
number of live hematopoietic stem cells [8]: did not significantly alter
CD3+ T lymphocytes ([9]; IP 10 mg/kg (HED 0.81 mg/kg) on day −6, −4, −2, control 3370): 2441 live events
B lymphocytes (CD3−CD19+ cells) in the peripheral blood ([9]; IP 10 mg/kg (HED 0.81 mg/kg) on day −6, −4, −2, vehicle control 10680): 3733 live events
reduction of B lymphocytes ([9]; IP 10 mg/kg (HED 0.81 mg/kg) on day −6, −4, −2, vs vehicle, significant): 65%
CD3+CD4+CD25+FoxP3+ Tregs ([9]; same dosing, control 198): 70 live events
CD3+CD8 T lymphocytes ([9]; same dosing, control 1318): 1277 live events
CD3+CD4+ T lymphocytes ([9]; same dosing, control 1779): 902 live events
germinal center area (BCL-6 staining) in spleen [10]: reduced at all dexamethasone doses
lymphodepletion in comparison to total body irradiation ([11]; HED 0.8 mg/kg on day −6, −4, −2): lymphodepleted equivalently to 5Gy TBI
reduced spleen cellularity ([11]; IP 10 mg/kg (HED 0.81 mg/kg) on day −6, −4, −2 before ACT): 99%
dose above which lymphoablation is completely evident [12]: above 18 mg/kg
patients who showed lymphocytosis ([13]; 3 mg/kg HED): 50%
hematopoietic stem cells (CD34+CD38−) [13, 21]: spared
patients who depleted CD3, CD4 and CD8 positive lymphocytes [13, 21]: 2 of 4
patients who depleted NK cells [13, 21]: 3 of 4
patients who depleted Tregs and B lymphocytes [13, 21]: 1 of 4
patients with lymphocytosis response in CD3 and CD4 lymphocytes ([13]; oral 3 mg/kg, 48 hours): 2 of 4
patients with lymphocytosis response in CD8, B lymphocytes and NK cells ([13]; oral 3 mg/kg, 48 hours): 1 of 4
patients who responded with lymphodepletion ([13]; oral 3 mg/kg, 48 hours, un-normalized flow cytometry data): 2 of the 4
dose at which plasma IL-2 and IL-15 cytokine elevations are observed ([14]; dexamethasone base, HED, about): ≥ 3 mg/kg
patients with elevated levels of IL-2 [14, 21]: 3 of 4
patients with elevated levels of IL-15 [14, 21]: 4 of 4
patients with increased serum IL-2 and/or IL-15 levels [14, 21]: 100%
levels of plasma IL-2 and IL-15 cytokines ([14]; small number of human osteoarthritis patients, acute high dose): elevates
effects of oral dosing compared to IV dosing ([15]; acute high dose): comparable effects
reduction in CD4+, CD8+, Tregs and B cells population ([15]; high doses, 48 hours after administration): ~98%
lymphodepletion ([15]; high-dose dexamethasone, naïve mouse and rat models): complete lymphodepletion
ileac crest bone marrow MSC number (CFU-F per ml) [16]: almost two fold; also recorded: about twice as high
glucose level ([17]; after acute high dose dexamethasone): not elevated over the normal range
clinical chemistry levels including cholesterol and total protein ([17]; mice, acute oral HED doses 6-12 mg/kg): do not elevate clinical chemistry levels out of normal range
marginal zone area (width) in spleen [18]: reduced at all dexamethasone doses

C[C@]12C=CC(=O)C=C1CC[C@@H]1[C@@H]2C(=O)C[C@@]2(C)[C@H]1CC[C@]2(O)C(=O)CO [prednisone]
biologic half-life [19]: about 20 hours
reduction of B lymphocyte numbers [4]: greater than 90%
reduction of memory B cell populations [4]: greater than 90%
dose above which spleen weights or germinal centers are significantly impacted [20]: over 2.5 mg/kg
